Experimental data published in the supplement of paper PMC10307832.

Assays:
Test in all cases: relative viability (nuclei count vs DMSO), 5 days (fraction); higher = more cells survive
Everolimus + Foretinib = compound: CO[C@H]1C[C@@H]2CC[C@@H](C)[C@@](O)(O2)C(=O)C(=O)N2CCCC[C@H]2C(=O)O[C@H]([C@H](C)C[C@@H]2CC[C@@H](OCCO)[C@H](OC)C2)CC(=O)[C@H](C)/C=C(\C)[C@@H](O)[C@@H](OC)C(=O)[C@H](C)C[C@H](C)/C=C/C=C/C=C/1C [Everolimus] + COc1cc2c(Oc3ccc(NC(=O)C4(C(=O)Nc5ccc(F)cc5)CC4)cc3F)ccnc2cc1OCCCN1CCOCC1 [Foretinib] (partner 0.25 µM)
Summary of the method: (§1)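 Lung cancer cell lines in 1536-well plates got either a single drug or a fixed anchor-drug dose together with five library-drug doses (not always all listed) in √10 steps, by pin tool, on the day after seeding. Nuclei were counted after 5 days, and relative viability is the treated-to-vehicle ratio of nuclei counts. Values are medians of duplicate plates.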

Everolimus + Pemetrexed = compound: CO[C@H]1C[C@@H]2CC[C@@H](C)[C@@](O)(O2)C(=O)C(=O)N2CCCC[C@H]2C(=O)O[C@H]([C@H](C)C[C@@H]2CC[C@@H](OCCO)[C@H](OC)C2)CC(=O)[C@H](C)/C=C(\C)[C@@H](O)[C@@H](OC)C(=O)[C@H](C)C[C@H](C)/C=C/C=C/C=C/1C [Everolimus] + Nc1nc2[nH]cc(CCc3ccc(C(=O)N[C@@H](CCC(=O)O)C(=O)O)cc3)c2c(=O)[nH]1 [Pemetrexed] (partner 0.2 µM)
Summary of the method: as §1

Everolimus + OSI-027 = compound: CO[C@H]1C[C@@H]2CC[C@@H](C)[C@@](O)(O2)C(=O)C(=O)N2CCCC[C@H]2C(=O)O[C@H]([C@H](C)C[C@@H]2CC[C@@H](OCCO)[C@H](OC)C2)CC(=O)[C@H](C)/C=C(\C)[C@@H](O)[C@@H](OC)C(=O)[C@H](C)C[C@H](C)/C=C/C=C/C=C/1C [Everolimus] + COc1cccc2cc(-c3nc([C@H]4CC[C@H](C(=O)O)CC4)n4ncnc(N)c34)[nH]c12 [OSI-027] (partner 0.5 µM)
Summary of the method: as §1

Everolimus + AZD7762 = compound: CO[C@H]1C[C@@H]2CC[C@@H](C)[C@@](O)(O2)C(=O)C(=O)N2CCCC[C@H]2C(=O)O[C@H]([C@H](C)C[C@@H]2CC[C@@H](OCCO)[C@H](OC)C2)CC(=O)[C@H](C)/C=C(\C)[C@@H](O)[C@@H](OC)C(=O)[C@H](C)C[C@H](C)/C=C/C=C/C=C/1C [Everolimus] + NC(=O)Nc1cc(-c2cccc(F)c2)sc1C(=O)N[C@H]1CCCNC1 [AZD7762] (partner 0.2 µM)
Summary of the method: as §1

Cell Line | relative viability (Everolimus + Foretinib; first compound 0.01 µM) | relative viability (Everolimus + Foretinib; first compound 0.03162 µM) | relative viability (Everolimus + Foretinib; first compound 0.1 µM) | relative viability (Everolimus + Foretinib; first compound 0.3162 µM) | relative viability (Everolimus + Foretinib; first compound 1 µM) | relative viability (Everolimus + Pemetrexed; first compound 0.01 µM) | relative viability (Everolimus + Pemetrexed; first compound 0.03162 µM) | relative viability (Everolimus + Pemetrexed; first compound 0.1 µM) | relative viability (Everolimus + Pemetrexed; first compound 0.3162 µM) | relative viability (Everolimus + Pemetrexed; first compound 1 µM) | relative viability (Everolimus + OSI-027; first compound 0.01 µM) | relative viability (Everolimus + OSI-027; first compound 0.03162 µM) | relative viability (Everolimus + OSI-027; first compound 0.1 µM) | relative viability (Everolimus + OSI-027; first compound 0.3162 µM) | relative viability (Everolimus + OSI-027; first compound 1 µM) | relative viability (Everolimus + AZD7762; first compound 0.01 µM) | relative viability (Everolimus + AZD7762; first compound 0.03162 µM) | relative viability (Everolimus + AZD7762; first compound 0.1 µM) | relative viability (Everolimus + AZD7762; first compound 0.3162 µM) | relative viability (Everolimus + AZD7762; first compound 1 µM)
COR-L 105 | 0.775 | 0.71 | 0.787 | 0.709 | 0.952 | 0.9 | 0.806 | 0.75 | 0.792 | 0.716 | 0.43 | 0.418 | 0.366 | 0.457 | 0.445 |  |  |  |  | 
LK-2 | 0.638 |  | 0.583 | 0.656 | 0.679 | 0.203 | 0.229 | 0.212 | 0.208 | 0.167 | 0.152 | 0.153 | 0.167 | 0.162 | 0.172 | 0.213 | 0.197 | 0.173 | 0.186 | 0.208
NCI-H727 | 0.67 | 0.569 | 0.611 | 0.603 | 0.425 |  |  |  |  |  | 0.425 | 0.392 | 0.467 | 0.345 | 0.444 | 0.482 | 0.483 | 0.454 | 0.565 | 0.523
RERF-LC-KJ | 0.686 | 0.694 | 0.578 | 0.539 | 0.559 | 0.468 | 0.489 | 0.498 | 0.426 | 0.457 | 0.449 | 0.358 | 0.313 | 0.411 | 0.429 | 0.566 | 0.415 | 0.462 | 0.507 | 0.598
NCI-H2023 | 0.503 | 0.404 | 0.424 | 0.358 | 0.376 | 0.18 | 0.174 | 0.201 | 0.19 | 0.142 | 0.197 | 0.25 | 0.178 | 0.153 | 0.158 |  |  |  |  | 
NCI-H322M | 0.695 | 0.655 | 0.666 | 0.78 | 0.73 | 0.597 | 0.598 | 0.554 | 0.597 | 0.618 | 0.425 | 0.501 | 0.473 | 0.433 | 0.495 | 0.473 | 0.39 | 0.481 | 0.397 | 0.43
NCI-H1666 | 0.885 | 0.925 | 0.972 | 0.926 | 0.875 | 0.884 | 0.859 | 0.93 | 0.885 | 0.825 | 0.722 | 0.725 | 0.719 | 0.811 | 0.722 | 0.855 | 0.84 | 0.821 | 0.899 | 0.908
SW 900 | 0.685 | 0.477 | 0.748 | 0.525 | 0.508 | 0.391 | 0.432 | 0.482 | 0.431 | 0.421 | 0.317 | 0.273 | 0.25 | 0.35 | 0.244 | 0.362 | 0.33 | 0.285 | 0.36 | 0.427
NCI-H2087 | 0.704 | 0.662 | 0.739 | 0.875 | 0.713 | 0.587 | 0.636 | 0.612 | 0.608 | 0.626 | 0.356 | 0.327 | 0.388 | 0.49 | 0.233 | 1.25 | 1.51 | 1.2 | 1.36 | 1.35
LU99A | 0.52 | 0.565 | 0.525 | 0.519 | 0.605 | 0.206 | 0.24 | 0.248 | 0.189 | 0.254 | 0.234 | 0.243 | 0.245 | 0.248 | 0.241 | 0.213 | 0.279 | 0.213 | 0.246 | 0.33
HCC-366 | 0.794 | 0.888 | 0.873 | 0.866 | 0.869 | 0.339 | 0.307 | 0.284 | 0.216 | 0.173 | 0.755 | 0.614 | 0.49 | 0.727 | 0.5 | 0.371 | 0.245 | 0.334 | 0.29 | 0.209
EKVX | 0.582 | 0.808 | 0.428 | 0.444 | 0.555 |  | 0.378 | 0.371 | 0.345 | 0.389 | 0.518 | 0.427 | 0.289 | 0.358 | 0.43 |  | 0.68 | 0.41 | 0.415 | 0.432
NCI-H2342 | 0.924 | 0.654 | 0.551 | 0.618 | 0.681 | 0.559 | 0.478 | 0.446 | 0.584 | 0.477 | 0.501 | 0.456 | 0.431 | 0.515 | 0.547 | 0.394 | 0.331 | 0.382 | 0.376 | 0.461
NCI-H1755 | 0.791 | 0.751 | 0.653 | 0.822 | 0.632 | 0.468 | 0.484 | 0.512 | 0.438 | 0.448 | 0.655 | 0.63 | 0.573 | 0.647 | 0.593 | 0.379 | 0.39 | 0.382 | 0.344 | 0.345
NCI-H647 | 0.957 | 0.697 | 0.646 | 0.776 | 0.612 | 0.175 | 0.184 | 0.156 | 0.11 | 0.175 | 0.363 | 0.401 | 0.343 | 0.449 | 0.489 | 0.249 | 0.273 | 0.237 | 0.207 | 0.364
